Our source for the inhibition values is ChEMBL document CHEMBL3132769, “Fragment growing to retain or alter the selectivity of anchored kinase hinge-binding fragments” (Medchemcomm, 2014).

In assay [1] the target is Tyrosine-protein kinase Lck (Homo sapiens) (UniProt P06239). Put plainly: Inhibition of human full length LCK expressed in baculovirus assessed as substrate phosphorylation using fluorescence-labelled peptides as substrate at 8 uM after 90 mins by microfluidic peptide phosphorylation assay.
Assay [2] has as its system Fibroblast growth factor receptor 2 (Homo sapiens), P21802 [N549H]. In words: Inhibition of human FGFR2 N549H mutant catalytic domain expressed in baculovirus assessed as substrate phosphorylation using fluorescence-labelled peptides as substrate at 8 uM after 90 mins by microfluidic peptide phosphorylation assay.
The target of assay [3] is T1, Serine/threonine-protein kinase Nek2 (Homo sapiens) (UniProt P51955).
T1 sequence (whole entry): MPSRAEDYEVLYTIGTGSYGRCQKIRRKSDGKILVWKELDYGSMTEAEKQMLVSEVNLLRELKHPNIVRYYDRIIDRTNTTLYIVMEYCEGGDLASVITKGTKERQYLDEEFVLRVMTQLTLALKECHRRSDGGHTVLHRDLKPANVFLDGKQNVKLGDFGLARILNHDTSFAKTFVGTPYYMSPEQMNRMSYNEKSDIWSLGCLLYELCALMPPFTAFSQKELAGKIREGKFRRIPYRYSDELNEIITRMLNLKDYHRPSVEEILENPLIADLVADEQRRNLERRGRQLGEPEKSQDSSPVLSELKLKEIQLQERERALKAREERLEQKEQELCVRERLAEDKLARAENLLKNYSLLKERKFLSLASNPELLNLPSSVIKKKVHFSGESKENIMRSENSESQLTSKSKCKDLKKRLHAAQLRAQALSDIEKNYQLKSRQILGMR
Put plainly: Inhibition of human full length NEK2 expressed in baculovirus assessed as substrate phosphorylation using fluorescence-labelled peptides as substrate at 0.1 uM after 90 mins by microfluidic peptide phosphorylation assay.

The target of assay [4] is Glycogen synthase kinase-3 beta (Homo sapiens) (UniProt P49841). Put plainly: Inhibition of human full length GSK-3 beta expressed in baculovirus assessed as substrate phosphorylation using fluorescence-labelled peptides as substrate at 0.06 uM after 90 mins by microfluidic peptide phosphorylation assay.
The target of assay [5] is RAC-alpha serine/threonine-protein kinase (Homo sapiens) (UniProt P31749). In words: Inhibition of human AKT1 catalytic domain expressed in baculovirus assessed as substrate phosphorylation using fluorescence-labelled peptides as substrate at 0.2 uM after 90 mins by microfluidic peptide phosphorylation assay.
Assay [6] has as its target Ribosomal protein S6 kinase alpha-1 (Homo sapiens) (UniProt Q15418). The note with it: 9 uM.
Description: Inhibition of human full length RSK1 expressed in baculovirus assessed as substrate phosphorylation using fluorescence-labelled peptides as substrate at 9 uM after 90 mins by microfluidic peptide phosphorylation assay
In assay [7] the target is T2, Aurora kinase A (Homo sapiens) (UniProt O14965).
T2 sequence (whole entry): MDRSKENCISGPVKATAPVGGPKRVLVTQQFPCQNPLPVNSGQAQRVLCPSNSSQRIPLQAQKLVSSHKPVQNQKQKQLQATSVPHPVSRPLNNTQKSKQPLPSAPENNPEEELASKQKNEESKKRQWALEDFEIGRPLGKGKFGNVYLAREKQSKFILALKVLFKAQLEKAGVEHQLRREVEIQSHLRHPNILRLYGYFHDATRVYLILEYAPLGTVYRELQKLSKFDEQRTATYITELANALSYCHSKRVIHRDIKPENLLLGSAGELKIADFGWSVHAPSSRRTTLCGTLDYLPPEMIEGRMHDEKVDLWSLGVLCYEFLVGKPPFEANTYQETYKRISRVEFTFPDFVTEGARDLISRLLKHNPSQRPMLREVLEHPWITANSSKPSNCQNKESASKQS
Put plainly: Inhibition of human full length AurA expressed in baculovirus assessed as substrate phosphorylation using fluorescence-labelled peptides as substrate at 9 uM after 90 mins by microfluidic peptide phosphorylation assay.

In assay [8] the target is Tyrosine-protein kinase ABL1 (Homo sapiens) (UniProt P00519). Put plainly: Inhibition of human full-length ABL expressed in baculovirus assessed as substrate phosphorylation using fluorescence-labelled peptides as substrate at 70 uM after 90 mins by microfluidic peptide phosphorylation assay.
The target in assay [9] is Serine/threonine-protein kinase MARK1 (Homo sapiens) (UniProt Q9P0L2). In words: Inhibition of human full length MARK1 expressed in baculovirus assessed as substrate phosphorylation using fluorescence-labelled peptides as substrate at 2 uM after 90 mins by microfluidic peptide phosphorylation assay.
The target in assay [10] is T3, Interleukin-1 receptor-associated kinase 4 (Homo sapiens) (UniProt Q9NWZ3).
T3 sequence (whole entry): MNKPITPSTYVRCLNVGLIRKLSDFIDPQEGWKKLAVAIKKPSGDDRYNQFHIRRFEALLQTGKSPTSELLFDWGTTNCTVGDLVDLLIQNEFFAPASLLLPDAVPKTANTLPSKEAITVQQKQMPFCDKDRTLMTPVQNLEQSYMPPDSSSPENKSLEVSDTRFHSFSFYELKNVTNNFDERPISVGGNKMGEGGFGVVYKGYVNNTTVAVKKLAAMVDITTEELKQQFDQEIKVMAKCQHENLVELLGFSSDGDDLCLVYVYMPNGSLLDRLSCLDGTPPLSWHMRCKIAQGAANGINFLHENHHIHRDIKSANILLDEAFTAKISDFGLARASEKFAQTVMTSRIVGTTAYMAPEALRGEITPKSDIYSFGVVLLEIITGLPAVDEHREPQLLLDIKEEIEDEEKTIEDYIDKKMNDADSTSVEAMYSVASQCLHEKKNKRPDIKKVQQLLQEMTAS
In words: Inhibition of human IRAK4 catalytic domain expressed in baculovirus assessed as substrate phosphorylation using fluorescence-labelled peptides as substrate at 2 uM after 90 mins by microfluidic peptide phosphorylation assay.

The target of assay [11] is Insulin receptor (Homo sapiens) (UniProt P06213). Put plainly: Inhibition of human INSR catalytic domain expressed in baculovirus assessed as substrate phosphorylation using fluorescence-labelled peptides as substrate at 95 uM after 90 mins by microfluidic peptide phosphorylation assay.
Assay [12] addresses Serine/threonine-protein kinase MARK2 (Homo sapiens) (UniProt Q7KZI7). In words: Inhibition of human full length MARK2 expressed in baculovirus assessed as substrate phosphorylation using fluorescence-labelled peptides as substrate at 1000 uM after 90 mins by microfluidic peptide phosphorylation assay.
The subject of assay [13] is Tyrosine-protein kinase ABL1 (Homo sapiens), P00519 [T315I]. In words: Inhibition of human truncated ABL T315I mutant expressed in baculovirus assessed as substrate phosphorylation using fluorescence-labelled peptides as substrate at 1000 uM after 90 mins by microfluidic peptide phosphorylation assay.

Serine/threonine-protein kinase MARK1 (Homo sapiens), sequence (Q9P0L2 whole entry, looked up): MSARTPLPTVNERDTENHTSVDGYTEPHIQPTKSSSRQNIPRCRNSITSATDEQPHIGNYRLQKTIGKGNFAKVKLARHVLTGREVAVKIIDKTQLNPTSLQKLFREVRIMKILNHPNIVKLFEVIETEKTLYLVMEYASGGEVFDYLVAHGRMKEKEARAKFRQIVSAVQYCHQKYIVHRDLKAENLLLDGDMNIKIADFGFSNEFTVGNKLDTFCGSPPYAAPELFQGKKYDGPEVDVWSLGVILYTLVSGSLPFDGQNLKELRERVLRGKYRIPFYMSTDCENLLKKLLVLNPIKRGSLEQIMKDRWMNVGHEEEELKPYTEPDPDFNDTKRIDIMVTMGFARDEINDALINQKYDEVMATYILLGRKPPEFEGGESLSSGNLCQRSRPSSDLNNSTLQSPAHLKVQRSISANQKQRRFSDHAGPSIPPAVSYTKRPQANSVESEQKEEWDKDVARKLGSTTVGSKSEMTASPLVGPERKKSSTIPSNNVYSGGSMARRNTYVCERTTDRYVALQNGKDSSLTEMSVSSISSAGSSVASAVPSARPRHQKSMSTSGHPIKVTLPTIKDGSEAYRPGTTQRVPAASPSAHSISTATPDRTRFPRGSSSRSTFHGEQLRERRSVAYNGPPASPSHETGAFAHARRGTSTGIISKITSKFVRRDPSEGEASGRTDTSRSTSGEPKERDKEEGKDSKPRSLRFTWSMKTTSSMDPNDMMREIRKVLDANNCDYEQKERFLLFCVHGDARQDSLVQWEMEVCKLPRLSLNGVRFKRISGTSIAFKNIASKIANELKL
RAC-alpha serine/threonine-protein kinase (Homo sapiens), sequence (P31749 whole entry, the tested form may be a part): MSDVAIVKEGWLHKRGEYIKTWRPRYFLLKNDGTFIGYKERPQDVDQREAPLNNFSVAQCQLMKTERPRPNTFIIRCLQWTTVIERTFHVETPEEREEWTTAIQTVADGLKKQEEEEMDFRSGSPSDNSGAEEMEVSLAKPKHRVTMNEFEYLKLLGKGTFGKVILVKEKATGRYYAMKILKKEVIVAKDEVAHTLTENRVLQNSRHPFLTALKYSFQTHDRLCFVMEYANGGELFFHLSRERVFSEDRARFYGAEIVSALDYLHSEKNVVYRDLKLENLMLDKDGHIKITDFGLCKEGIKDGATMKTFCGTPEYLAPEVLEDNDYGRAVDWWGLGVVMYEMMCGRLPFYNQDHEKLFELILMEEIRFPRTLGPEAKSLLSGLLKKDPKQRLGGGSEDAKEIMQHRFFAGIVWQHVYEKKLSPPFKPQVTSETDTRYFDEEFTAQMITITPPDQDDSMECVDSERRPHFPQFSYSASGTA
Serine/threonine-protein kinase MARK2 (Homo sapiens), sequence (Q7KZI7 whole entry, the tested form may be a part): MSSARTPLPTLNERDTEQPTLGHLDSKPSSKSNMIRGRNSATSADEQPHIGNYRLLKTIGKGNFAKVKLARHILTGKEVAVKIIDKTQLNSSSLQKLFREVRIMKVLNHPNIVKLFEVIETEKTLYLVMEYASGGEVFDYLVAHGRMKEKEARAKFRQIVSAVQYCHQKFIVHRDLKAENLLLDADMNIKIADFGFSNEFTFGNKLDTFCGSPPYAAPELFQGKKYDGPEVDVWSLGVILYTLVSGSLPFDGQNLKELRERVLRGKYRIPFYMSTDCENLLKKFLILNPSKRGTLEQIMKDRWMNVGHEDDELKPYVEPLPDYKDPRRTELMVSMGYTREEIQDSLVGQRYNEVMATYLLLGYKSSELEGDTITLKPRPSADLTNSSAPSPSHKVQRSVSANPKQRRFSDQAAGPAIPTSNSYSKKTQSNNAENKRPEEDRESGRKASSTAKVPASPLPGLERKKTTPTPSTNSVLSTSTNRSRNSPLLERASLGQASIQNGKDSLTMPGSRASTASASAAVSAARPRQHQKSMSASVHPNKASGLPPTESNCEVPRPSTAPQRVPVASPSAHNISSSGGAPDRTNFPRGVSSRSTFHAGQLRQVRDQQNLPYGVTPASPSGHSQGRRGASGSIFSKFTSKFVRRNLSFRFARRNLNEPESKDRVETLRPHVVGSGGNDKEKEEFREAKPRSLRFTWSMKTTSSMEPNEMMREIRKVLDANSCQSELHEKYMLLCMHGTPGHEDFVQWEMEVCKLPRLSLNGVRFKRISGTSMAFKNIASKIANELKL
Tyrosine-protein kinase Lck (Homo sapiens), sequence (P06239 2-509 limits assumed): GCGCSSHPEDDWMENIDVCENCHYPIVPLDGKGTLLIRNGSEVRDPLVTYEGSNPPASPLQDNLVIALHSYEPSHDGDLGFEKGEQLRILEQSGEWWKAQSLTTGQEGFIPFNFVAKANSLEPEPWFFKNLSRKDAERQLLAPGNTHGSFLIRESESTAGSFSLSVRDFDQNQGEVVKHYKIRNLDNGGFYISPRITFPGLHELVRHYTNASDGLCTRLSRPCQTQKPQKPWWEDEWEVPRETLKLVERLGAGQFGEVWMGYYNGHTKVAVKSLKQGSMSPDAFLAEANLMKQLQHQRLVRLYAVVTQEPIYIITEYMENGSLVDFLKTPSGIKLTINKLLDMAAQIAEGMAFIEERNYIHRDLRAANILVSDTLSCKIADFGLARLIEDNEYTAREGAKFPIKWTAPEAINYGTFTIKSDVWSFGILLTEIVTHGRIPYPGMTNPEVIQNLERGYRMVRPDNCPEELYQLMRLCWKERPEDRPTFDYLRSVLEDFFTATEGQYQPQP
Fibroblast growth factor receptor 2 (Homo sapiens), P21802 [N549H], sequence (P21802 whole entry N549H, the tested form may be a part): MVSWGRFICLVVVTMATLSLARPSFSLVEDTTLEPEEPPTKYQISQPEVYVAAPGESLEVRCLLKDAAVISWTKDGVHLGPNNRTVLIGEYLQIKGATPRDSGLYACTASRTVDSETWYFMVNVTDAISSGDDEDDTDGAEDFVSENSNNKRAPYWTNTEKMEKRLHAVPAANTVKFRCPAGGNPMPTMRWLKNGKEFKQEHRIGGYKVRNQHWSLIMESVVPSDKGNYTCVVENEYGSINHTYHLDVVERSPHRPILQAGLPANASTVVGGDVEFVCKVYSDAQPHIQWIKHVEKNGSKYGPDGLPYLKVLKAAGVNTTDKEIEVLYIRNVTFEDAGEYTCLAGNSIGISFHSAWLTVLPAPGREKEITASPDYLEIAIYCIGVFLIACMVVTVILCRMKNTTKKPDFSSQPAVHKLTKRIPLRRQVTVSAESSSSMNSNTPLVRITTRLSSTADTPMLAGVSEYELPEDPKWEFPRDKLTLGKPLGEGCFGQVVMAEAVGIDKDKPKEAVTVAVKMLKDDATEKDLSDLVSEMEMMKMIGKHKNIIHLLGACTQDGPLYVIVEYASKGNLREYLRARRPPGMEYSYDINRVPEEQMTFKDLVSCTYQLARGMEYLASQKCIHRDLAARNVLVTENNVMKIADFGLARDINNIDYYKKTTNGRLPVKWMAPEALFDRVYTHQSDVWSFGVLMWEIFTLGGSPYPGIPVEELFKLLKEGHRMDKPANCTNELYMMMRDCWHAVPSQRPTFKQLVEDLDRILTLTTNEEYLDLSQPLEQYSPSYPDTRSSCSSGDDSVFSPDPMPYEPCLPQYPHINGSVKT
Glycogen synthase kinase-3 beta (Homo sapiens), sequence (P49841 whole entry, looked up, the tested form may be a part): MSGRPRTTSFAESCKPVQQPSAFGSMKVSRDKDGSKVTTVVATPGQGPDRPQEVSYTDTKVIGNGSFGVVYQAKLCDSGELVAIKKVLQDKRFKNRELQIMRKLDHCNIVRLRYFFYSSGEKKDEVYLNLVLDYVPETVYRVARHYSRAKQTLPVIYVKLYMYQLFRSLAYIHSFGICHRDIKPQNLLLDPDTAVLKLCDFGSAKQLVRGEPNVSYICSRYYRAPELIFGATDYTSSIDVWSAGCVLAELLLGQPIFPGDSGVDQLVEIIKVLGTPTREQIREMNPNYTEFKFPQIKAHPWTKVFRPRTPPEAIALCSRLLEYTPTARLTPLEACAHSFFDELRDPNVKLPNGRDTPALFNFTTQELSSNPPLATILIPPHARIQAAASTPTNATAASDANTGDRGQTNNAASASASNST
Ribosomal protein S6 kinase alpha-1 (Homo sapiens), sequence (Q15418 whole entry): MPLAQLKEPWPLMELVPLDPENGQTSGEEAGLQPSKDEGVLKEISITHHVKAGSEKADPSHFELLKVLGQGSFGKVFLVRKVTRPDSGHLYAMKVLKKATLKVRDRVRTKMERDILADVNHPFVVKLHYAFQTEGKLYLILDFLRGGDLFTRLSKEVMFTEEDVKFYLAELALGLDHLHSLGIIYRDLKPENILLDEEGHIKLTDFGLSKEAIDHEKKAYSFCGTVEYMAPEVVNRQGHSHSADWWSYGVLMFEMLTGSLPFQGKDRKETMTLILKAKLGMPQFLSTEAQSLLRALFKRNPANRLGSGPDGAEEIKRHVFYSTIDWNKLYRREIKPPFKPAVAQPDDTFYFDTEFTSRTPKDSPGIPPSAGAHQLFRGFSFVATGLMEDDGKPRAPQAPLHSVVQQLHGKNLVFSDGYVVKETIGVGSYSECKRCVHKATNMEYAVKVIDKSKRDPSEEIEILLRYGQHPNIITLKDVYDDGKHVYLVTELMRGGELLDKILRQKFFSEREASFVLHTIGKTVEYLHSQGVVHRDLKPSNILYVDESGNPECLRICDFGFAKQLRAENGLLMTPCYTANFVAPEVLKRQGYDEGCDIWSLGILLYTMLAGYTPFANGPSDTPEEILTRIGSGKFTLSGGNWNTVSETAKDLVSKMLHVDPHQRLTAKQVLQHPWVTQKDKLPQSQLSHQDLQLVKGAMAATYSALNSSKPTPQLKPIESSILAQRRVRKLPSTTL

Regarding `NCC1CCN(c2ncnc3[nH]ccc23)CC1`, the inhibition in assay [1] amounted to 48.5%; in [2] it was 0%.
Consider `C[C@H](CN(C)C)Oc1nc(Nc2cc3cccc(Cl)c3cn2)cnc1C#N`, for which the inhibition in assay [3] was 2%.
With `NC1(Cc2ccc(Cl)cc2)CCN(c2ncnc3[nH]ccc23)CC1`, the inhibition in [4] was 0%.
`Clc1ccc(C2(c3ccc(-c4ncnc5[nH]cnc45)cc3)CCNCC2)cc1`: in assay [5], the inhibition was determined as 94%.
`NCC1CN(c2ncnc3[nH]c4cnccc4c23)CCO1` (stereo not drawn): the inhibition in [6] was 91%; in assay [7], 23.5%.
As for `CNCc1ccc(-c2ncnc3[nH]cnc23)cc1`, the inhibition in assay [8] was 47.5%.
Turning to `NC1CCN(c2ncnc3[nH]ccc23)CC1`, the values for the inhibition in assay [9] and in assay [10] were 34.5% and 1.5%, respectively.
With `NCCc1ccc(-c2ncnc3[nH]cnc23)cc1`, in assay [11], the inhibition was found to be 23.5%.
Take `c1cnc2[nH]ccc2c1`: the inhibition in [12] was determined as 75%; in assay [13], 58%.

By inhibition is commonly meant the change of the read-out against control, counted positive when it falls.
